According to patent US7217726B2, “Antibacterial agents” (Orchid Chemicals & Pharmaceuticals Limited, priority 2002, dated 2007):
≈ marks a conversion by molar mass, not a printed value.

Assays:
S. aureus MRO 00013 = assay: Agar Dilution Method MIC, S. aureus MRO 00013; type: cell-based; conditions: Staphylococcus aureus, MRO00013, Mueller Hinton Agar, 35° Celsius, 20 hours, read-out: Minimum Inhibitory Concentration (MIC in μg/ml)
Procedure: (§1) Briefly, the compounds of invention were weighed, dissolved in Dimethyl Sulfoxide, serially diluted in the same solvent and then incorporated into molten Mueller Hinton Agar in a petridish before solidification, with each petridish containing a different concentration of a compound.
(§2) The Bacterial Inoculum was prepared by touching the tops of 3 to 5 well isolated bacterial colonies with the same morphological appearance from an 18 hour old culture with an inoculating loop, transfering the growth to a tube containing 5 ml of normal saline and adjusting the turbidity of the saline suspension to 0.5 Macfarland Turbidity Standard equivalent to a bacterial population of 1.5×10^8 colony forming units (CFU) per millilitre of suspension.
(§3) The bacterial inoculum prepared in the above manner was inoculated onto petri dishes containing Mueller Hinton Agar which had earlier been incorporated with different dilutions of the compounds of invention by a Multipoint Inoculator with each inoculum spot containing approximately 1×10^4 colony forming units (CFU) of bacteria.
(§4) The inoculated petridishes were incubated at 35° Celsius in an ambient atmosphere for 20 hours. Petridishes containing different concentrations of Vancomycin and Oxacillin and inoculated with Staphylococcus aureus, Coagulase Negative Staphylococci and Enterococci were incubated for 24 hours.

S. aureus MRO 00055 = assay: Agar Dilution Method MIC, S. aureus MRO 00055; type: cell-based; conditions: Staphylococcus aureus, MRO00055, Mueller Hinton Agar, 35° Celsius, 20 hours, read-out: Minimum Inhibitory Concentration (MIC in μg/ml)
Procedure: as §1, §2, §3, §4

S. epidermidis MRO 02046 = assay: Agar Dilution Method MIC, S. epidermidis MRO 02046; type: cell-based; conditions: Staphylococcus epidermidis, MRO02046, Mueller Hinton Agar, 35° Celsius, 20 hours, read-out: Minimum Inhibitory Concentration (MIC in μg/ml)
Procedure: as §1, §2, §3, §4

S. aureus MRO 00001 = assay: Agar Dilution Method MIC, S. aureus MRO 00001; type: cell-based; conditions: Staphylococcus aureus, MRO00001, Mueller Hinton Agar, 35° Celsius, 20 hours, read-out: Minimum Inhibitory Concentration (MIC in μg/ml)
Procedure: as §1, §2, §3, §4

S. aureus MRO 00003 = assay: Agar Dilution Method MIC, S. aureus MRO 00003; type: cell-based; conditions: Staphylococcus aureus, MRO00003, Mueller Hinton Agar, 35° Celsius, 20 hours, read-out: Minimum Inhibitory Concentration (MIC in μg/ml)
Procedure: as §1, §2, §3, §4

S. aureus MRO 00030 = assay: Agar Dilution Method MIC, S. aureus MRO 00030; type: cell-based; conditions: Staphylococcus aureus, MRO00030, Mueller Hinton Agar, 35° Celsius, 20 hours, read-out: Minimum Inhibitory Concentration (MIC in μg/ml)
Procedure: as §1, §2, §3, §4

S. aureus MRO 00048 = assay: Agar Dilution Method MIC, S. aureus MRO 00048; type: cell-based; conditions: Staphylococcus aureus, MRO00048, Mueller Hinton Agar, 35° Celsius, 20 hours, read-out: Minimum Inhibitory Concentration (MIC in μg/ml)
Procedure: as §1, §2, §3, §4

S. aureus MRO 00059 = assay: Agar Dilution Method MIC, S. aureus MRO 00059; type: cell-based; conditions: Staphylococcus aureus, MRO00059, Mueller Hinton Agar, 35° Celsius, 20 hours, read-out: Minimum Inhibitory Concentration (MIC in μg/ml)
Procedure: as §1, §2, §3, §4

E. fecalis MRO 04045 = assay: Agar Dilution Method MIC, E. fecalis MRO 04045; type: cell-based; conditions: Enterococcus faecalis, MRO04045, Mueller Hinton Agar, 35° Celsius, 20 hours, read-out: Minimum Inhibitory Concentration (MIC in μg/ml)
Procedure: as §1, §2, §3, §4

E. faecalis ATCC 51299 = assay: Agar Dilution Method MIC, E. faecalis ATCC 51299; type: cell-based; conditions: Enterococcus faecalis, ATCC51299, Mueller Hinton Agar, 35° Celsius, 20 hours, read-out: Minimum Inhibitory Concentration (MIC in μg/ml)
Procedure: as §1, §2, §3, §4

E. faecalis ATCC 29212 = assay: Agar Dilution Method MIC, E. faecalis ATCC 29212; type: cell-based; conditions: Enterococcus faecalis, ATCC29212, Mueller Hinton Agar, 35° Celsius, 20 hours, read-out: Minimum Inhibitory Concentration (MIC in μg/ml)
Procedure: as §1, §2, §3, §4

S. aureus ATCC 29213 = assay: Agar Dilution Method MIC, S. aureus ATCC 29213; type: cell-based; conditions: Staphylococcus aureus, ATCC29213, Mueller Hinton Agar, 35° Celsius, 20 hours, read-out: Minimum Inhibitory Concentration (MIC in μg/ml)
Procedure: as §1, §2, §3, §4

S. aureus ATCC 43300 = assay: Agar Dilution Method MIC, S. aureus ATCC 43300; type: cell-based; conditions: Staphylococcus aureus, ATCC43300, Mueller Hinton Agar, 35° Celsius, 20 hours, read-out: Minimum Inhibitory Concentration (MIC in μg/ml)
Procedure: as §1, §2, §3, §4

[1] = tested on: M. catarrhalis ATCC 43627; assay: Agar Dilution Method MIC, M. catarrhalis ATCC 43627; type: cell-based, Morexella catarrhalis; conditions: Moraxella catarrhalis, ATCC43627, Mueller Hinton Agar, 35° Celsius, 20 hours, read-out: Minimum Inhibitory Concentration (MIC in μg/ml)
Procedure: as §1, §2, §3, §4

[2] = tested on: M. catarrhalis ATCC 43617; assay: Agar Dilution Method MIC, M. catarrhalis ATCC 43617; type: cell-based, Morexella catarrhalis; conditions: Moraxella catarrhalis, ATCC43617, Mueller Hinton Agar, 35° Celsius, 20 hours, read-out: Minimum Inhibitory Concentration (MIC in μg/ml)
Procedure: as §1, §2, §3, §4

[3] = tested on: M. catarrhalis ATCC 43628; assay: Agar Dilution Method MIC, M. catarrhalis ATCC 43628; type: cell-based, Morexella catarrhalis; conditions: Moraxella catarrhalis, ATCC43628, Mueller Hinton Agar, 35° Celsius, 20 hours, read-out: Minimum Inhibitory Concentration (MIC in μg/ml)
Procedure: as §1, §2, §3, §4

Row | SMILES | MIC (S. aureus MRO 00013) | MIC (S. aureus MRO 00055) | MIC (S. epidermidis MRO 02046) | MIC (S. aureus MRO 00001) | MIC (S. aureus MRO 00003) | MIC (S. aureus MRO 00030) | MIC (S. aureus MRO 00048) | MIC (S. aureus MRO 00059) | MIC (E. fecalis MRO 04045) | MIC (E. faecalis ATCC 51299) | MIC (E. faecalis ATCC 29212) | MIC (S. aureus ATCC 29213) | MIC (S. aureus ATCC 43300) | MIC [1] | MIC [2] | MIC [3]
1 | CC(=S)NC[C@H]1CN(c2ccc(N3CCN(C(=S)c4cccs4)CC3)c(F)c2)C(=O)O1 [Example 3, (S)-N-[3-[3-Fluoro-4-[4-(thiophen-2-ylthiocarbonyl)piperazin-1-yl]phenyl]-2-oxooxazolidin-5-ylmethyl]thioacetamide] | 1 µg/mL (≈ 2.09 µM) | 1 µg/mL (≈ 2.09 µM) | 0.5 µg/mL (≈ 1.04 µM) | 0.5 µg/mL (≈ 1.04 µM) | 1 µg/mL (≈ 2.09 µM) | 0.5 µg/mL (≈ 1.04 µM) | 0.25 µg/mL (≈ 0.522 µM) | 0.25 µg/mL (≈ 0.522 µM) | 1 µg/mL (≈ 2.09 µM) | 0.25 µg/mL (≈ 0.522 µM) | 0.5 µg/mL (≈ 1.04 µM) | 0.5 µg/mL (≈ 1.04 µM) | 0.25 µg/mL (≈ 0.522 µM) | 1 µg/mL (≈ 2.09 µM) | 1 µg/mL (≈ 2.09 µM) | 1 µg/mL (≈ 2.09 µM)
2 | CC(=S)NC[C@H]1CN(c2ccc(N3CCN(C(=S)c4ccc([N+](=O)[O-])o4)CC3)c(F)c2)C(=O)O1 [Example 5, (S)-N-[3-[3-Fluoro-4-[4-(5-nitrofuran-2-ylthiocarbonyl)piperazin-1-yl]phenyl]-2-oxooxazolidin-5-ylmethyl]thioacetamide] | 0.5 µg/mL (≈ 0.985 µM) | 0.5 µg/mL (≈ 0.985 µM) | 0.25 µg/mL (≈ 0.493 µM) | 0.5 µg/mL (≈ 0.985 µM) | 0.5 µg/mL (≈ 0.985 µM) | 0.5 µg/mL (≈ 0.985 µM) | 0.25 µg/mL (≈ 0.493 µM) | 0.5 µg/mL (≈ 0.985 µM) | 1 µg/mL (≈ 1.97 µM) | 0.5 µg/mL (≈ 0.985 µM) | 0.5 µg/mL (≈ 0.985 µM) | 0.5 µg/mL (≈ 0.985 µM) | 0.25 µg/mL (≈ 0.493 µM) | 1 µg/mL (≈ 1.97 µM) | 0.5 µg/mL (≈ 0.985 µM) | 0.5 µg/mL (≈ 0.985 µM)
3 | CC(=S)NC[C@H]1CN(c2ccc(N3CCN(C(=S)C4CC4)CC3)c(F)c2)C(=O)O1 [Example 6, (S)-N-[3-[3-Fluoro-4-[4-(cyclopropylthiocarbonyl)piperazin-1-yl]phenyl]-2-oxooxazolidin-5-ylmethyl]thioacetamide] | 1 µg/mL (≈ 2.29 µM) | 1 µg/mL (≈ 2.29 µM) | 0.25 µg/mL (≈ 0.573 µM) | 0.25 µg/mL (≈ 0.573 µM) | 1 µg/mL (≈ 2.29 µM) | 0.5 µg/mL (≈ 1.15 µM) | 0.25 µg/mL (≈ 0.573 µM) | 0.25 µg/mL (≈ 0.573 µM) | 1 µg/mL (≈ 2.29 µM) | 0.25 µg/mL (≈ 0.573 µM) | 0.5 µg/mL (≈ 1.15 µM) | 0.5 µg/mL (≈ 1.15 µM) | 0.25 µg/mL (≈ 0.573 µM) | 1 µg/mL (≈ 2.29 µM) | 1 µg/mL (≈ 2.29 µM) | 1 µg/mL (≈ 2.29 µM)
4 | CC(=S)NC[C@H]1CN(c2ccc(N3CCN(C(=S)Nc4ccc([N+](=O)[O-])cc4)CC3)c(F)c2)C(=O)O1 [Example 45, (S)-N-[3-[3-Fluoro-4-(4-(4-nitrophenyl)thiocarbamidopiperazin-1-yl)phenyl]-2-oxooxazolidin-5-methyl]thioacetamide] | 0.5 µg/mL (≈ 0.939 µM) | 0.5 µg/mL (≈ 0.939 µM) | 0.25 µg/mL (≈ 0.469 µM) | 0.25 µg/mL (≈ 0.469 µM) | 0.5 µg/mL (≈ 0.939 µM) | 0.5 µg/mL (≈ 0.939 µM) | 0.25 µg/mL (≈ 0.469 µM) | 0.5 µg/mL (≈ 0.939 µM) | 0.25 µg/mL (≈ 0.469 µM) | 0.25 µg/mL (≈ 0.469 µM) | 0.25 µg/mL (≈ 0.469 µM) | 0.5 µg/mL (≈ 0.939 µM) | 0.25 µg/mL (≈ 0.469 µM) | – | – | –

Further molecules by falling MIC (S. aureus MRO 00013), results first:

Row | MIC (S. aureus MRO 00013) | MIC (S. aureus MRO 00055) | MIC (S. epidermidis MRO 02046) | MIC (S. aureus MRO 00001) | MIC (S. aureus MRO 00003) | MIC (S. aureus MRO 00030) | MIC (S. aureus MRO 00048) | MIC (S. aureus MRO 00059) | MIC (E. fecalis MRO 04045) | MIC (E. faecalis ATCC 51299) | MIC (E. faecalis ATCC 29212) | MIC (S. aureus ATCC 29213) | MIC (S. aureus ATCC 43300) | MIC [1] | MIC [2] | MIC [3] | SMILES
5 | 0.5 µg/mL (≈ 1.04 µM) | 0.5 µg/mL (≈ 1.04 µM) | 0.25 µg/mL (≈ 0.522 µM) | 0.25 µg/mL (≈ 0.522 µM) | 0.5 µg/mL (≈ 1.04 µM) | 0.5 µg/mL (≈ 1.04 µM) | 0.25 µg/mL (≈ 0.522 µM) | 0.5 µg/mL (≈ 1.04 µM) | 0.5 µg/mL (≈ 1.04 µM) | 0.5 µg/mL (≈ 1.04 µM) | 0.5 µg/mL (≈ 1.04 µM) | 0.25 µg/mL (≈ 0.522 µM) | 0.25 µg/mL (≈ 0.522 µM) | 1 µg/mL (≈ 2.09 µM) | 1 µg/mL (≈ 2.09 µM) | 1 µg/mL (≈ 2.09 µM) | CC(=S)NC[C@H]1CN(c2ccc(N3CCN(C(=S)c4ccsc4)CC3)c(F)c2)C(=O)O1 [Example 1, (S)-N-[3-[3-fluoro-4-[4(thiophen-3-ylthiocarbonyl)piperazin-1-yl]phenyl]-2-oxooxazolidin-5-ylmethyl]thioacetamide]
6 | 0.5 µg/mL (≈ 0.97 µM) | 0.5 µg/mL (≈ 0.97 µM) | 0.25 µg/mL (≈ 0.485 µM) | 0.25 µg/mL (≈ 0.485 µM) | 0.5 µg/mL (≈ 0.97 µM) | 0.5 µg/mL (≈ 0.97 µM) | 0.25 µg/mL (≈ 0.485 µM) | 0.25 µg/mL (≈ 0.485 µM) | 0.25 µg/mL (≈ 0.485 µM) | 0.25 µg/mL (≈ 0.485 µM) | 0.25 µg/mL (≈ 0.485 µM) | 0.5 µg/mL (≈ 0.97 µM) | 0.25 µg/mL (≈ 0.485 µM) | – | – | – | CC(=S)NC[C@H]1CN(c2ccc(N3CCN(C(=S)NC(=O)c4ccccc4)CC3)c(F)c2)C(=O)O1 [Example 47]
